Test results reported in US20260258084A1, “New Peptides as Selective IL-23 Receptor Antagonists” (Sanofi, priority 2022, published 2026).
pIC50: −log10 of the molar value. Values after ≈ are worked out from the molar mass of the structure shown. Like-named read-outs stand apart in the source and are kept apart here. Positions of bridges follow the written chain, without caps; N, C: chain ends. Non-standard residues stand in square brackets, D forms with d. Residues, ends and D or L forms follow the SMILES beside them. *: point of attachment. Trp(7-Me) = Cc1cccc2c(C[C@H](N)C(=O)O)c[nH]c12; 2Nal = N[C@@H](Cc1ccc2ccccc2c1)C(=O)O; αMeL = CC(C)C[C@](C)(N)C(=O)O; Thp = NC1(C(=O)O)CCOCC1; Me2NCH2CH2 = CN(C)CC*; Aib = CC(C)(N)C(=O)O; Ava = NCCCCC(=O)O; βAla = NCCC(=O)O; Sar = CNCC(=O)O

Experiments:
[1] = Solubility testing of peptides at different pH; type: physicochemical; details: target concentration 1 mg/ml, 2 hours agitation
How it was run: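 Solid obtained by drying down DMSO stock was taken up at 1 mg/mL in 50 mM HCl pH 1.2 or 50 mM phosphate pH 6.5, 7.4 or 9.0, agitated gently for 2 h, then filtered (0.45 μm). Solubility by UPLC-UV peak area against a DMSO reference standard curve, corrected for extinction coefficients.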

[2] = Chemical stability assessment of peptides (relative purity loss); type: physicochemical; details: 24 hours at 37° C.; for Chemical stability (relative purity loss) Buffer pH 1.2: 50 mM HCl pH 1.2 + acetonitrile (1:1); for Chemical stability (relative purity loss) Buffer pH 6.5: 50 mM phosphate buffer pH 6.5 + acetonitrile (1:1); for Chemical stability (relative purity loss) Buffer pH 7.4: 50 mM phosphate buffer pH 7.4 + acetonitrile (1:1)
How it was run: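 Peptide solutions at 1 mg/ml (purity-corrected) in 1:1 acetonitrile with 50 mM HCl pH 1.2, or 50 mM phosphate pH 6.5 or pH 7.4, held 24 hours at 2° C. and 37° C. Supernatants analysed by UHPLC-UV; relative purity loss taken as percent drop in peak-area purity from 0 to 24 hours at 37° C.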

[3] = biological target: T1, human interleukin-23 receptor (recombinant human IL-23R-Fc chimera) (Homo sapiens, UniProt Q5VWK5); assay: Human ELISA IL23/IL23R (assay for specific human IL23R antagonists); type: binding; details: Table 10; read-out: Human ELISA IL23/IL23R IC50
T1 construct: Fc (IgG Fc fusion)
How it was run: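 Plates coated overnight at 4 °C with human IL23 ([…]), blocked, then serially diluted peptides added with recombinant human IL-23R-Fc (0.1 μg/ml final) for 60 min at room temperature. Bound receptor detected with anti-human IgG1-HRP and fluorogenic peroxidase substrate.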

[4] = system: T2, Pepsin; assay: Protease stability in simulated gastric fluid (Pepsin-SGF, FaSSGF); type: in vitro ADME; details: simulated gastric fluid with pepsin (Pepsin-SGF), 60 min, 1 μM peptide, 37° C., read-out: FaSSGF 60 (min), remaining percent of peptide
T2 construct: purchased Merck Millipore
How it was run: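 Peptides at 1 μM final in pepsin-containing SGF at 37° C, sampled at 0, 60, 120 and 240 min, quenched with ethanol (0.1% HCOOH). Analysed by LCMS/MS; percent remaining from peak area relative to time 0 (set to 100%).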

[5] = system: Pancreatin; assay: Protease stability in simulated intestinal fluid (Pancreatin-SIF, FaSSIF); type: in vitro ADME; details: 1 μM peptide, 37° C.; for remaining at 1 h, 1 µM: 60 min, read-out: FaSSIF 60 (min), remaining percent of peptide; for remaining at 2 h, 1 µM: 120 min, read-out: FaSSIF 120 (min), remaining percent of peptide; for remaining at 4 h, 1 µM: 240 min, read-out: FaSSIF 240 (min), remaining percent of peptide
How it was run: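 Peptide (1 μM final) was incubated at 37° C in simulated intestinal fluid containing pancreatin (1 mg per 10 mL SIF concentrate). Samples were quenched with ethanol/0.1% HCOOH at 0, 60, 120 and 240 min and analysed by LC-MS/MS. Percent remaining is the peak area relative to time 0 (100%).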

[6] = 50 mM HCl buffer, 50 mM HCl pH 1.2, read-out: Solubility Buffer pH 1.2
[7] = 50 mM phosphate buffer pH 6.5, read-out: Solubility Buffer pH 6.5
[8] = 50 mM phosphate buffer pH 7.4, read-out: Solubility Buffer pH 7.4
[9] = 50 mM phosphate buffer pH 9.0, read-out: Solubility Buffer pH 9.0

Compound	solubility at 2 h [1, 6]	solubility at 2 h [1, 7]	solubility at 2 h [1, 8]	solubility at 2 h [1, 9]	Chemical stability (relative purity loss) Buffer pH 1.2 [2]	Chemical stability (relative purity loss) Buffer pH 6.5 [2]	Chemical stability (relative purity loss) Buffer pH 7.4 [2]	pIC50 [3]	remaining at 1 h, 1 µM [4]	remaining at 1 h, 1 µM [5]	remaining at 2 h, 1 µM [5]	remaining at 4 h, 1 µM [5]
CC(=O)NCCCC[C@@H]1NC(=O)[C@H](Cc2c[nH]c3c(C)cccc23)NC(=O)[C@H]([C@@H](C)O)NC(=O)[C@H](CC(N)=O)NC(=O)[C@@H]2CSSC[C@H](NC1=O)C(=O)N[C@@H](Cc1ccc(OCCN(C)C)cc1)C(=O)N[C@@H](Cc1ccc3ccccc3c1)C(=O)NC(C)(C)C(=O)N[C@H](C(=O)N[C@@H](CC(N)=O)C(=O)N[C@@H](Cc1c[nH]cn1)C(=O)N(C)CC(N)=O)CCC(=O)NCCCCC(=O)N2 [compound 45] ([Ava]CNT[Trp(7-Me)]K(Ac)CY(Me2NCH2CH2)[2Nal][Aib]ENH[Sar]-NH2; disulfide 2-7; lactam N-11)	≥ 1160 µg/mL	≥ 1060 µg/mL	≥ 1180 µg/mL	350 µg/mL (≈ 189 µM)	15.7%	0.0%	2.3%	9.49	100%	82%	83%	74%
CC(=O)NCCCC[C@@H]1NC(=O)[C@H](Cc2c[nH]c3c(C)cccc23)NC(=O)[C@H]([C@@H](C)O)NC(=O)[C@H](CC(N)=O)NC(=O)[C@@H]2CSSC[C@H](NC1=O)C(=O)N[C@@H](Cc1ccc(OCCN(C)C)cc1)C(=O)N[C@@H](Cc1ccc3ccccc3c1)C(=O)NC1(CCOCC1)C(=O)N[C@H](C(=O)N[C@@H](CC(N)=O)C(=O)N[C@@H](Cc1c[nH]cn1)C(=O)N(C)CC(N)=O)CCC(=O)NCCCCC(=O)N2 [compound 46] ([Ava]CNT[Trp(7-Me)]K(Ac)CY(Me2NCH2CH2)[2Nal][Thp]ENH[Sar]-NH2; disulfide 2-7; lactam N-11)	≥ 1080 µg/mL	≥ 1060 µg/mL	≥ 1060 µg/mL	≥ 1030 µg/mL	9.9%	1.9%	1.8%	9.44	100%	89%	82%	81%
CC(=O)NCCCC[C@@H]1NC(=O)[C@H](Cc2c[nH]c3c(C)cccc23)NC(=O)[C@H]([C@@H](C)O)NC(=O)[C@H](CC(N)=O)NC(=O)[C@@H]2CSSC[C@H](NC1=O)C(=O)N[C@@H](Cc1ccc(OCCN(C)C)cc1)C(=O)N[C@@H](Cc1ccc3ccccc3c1)C(=O)N[C@@](C)(CC(C)C)C(=O)N[C@H](C(=O)N[C@@H](CC(N)=O)C(=O)N[C@@H](Cc1c[nH]cn1)C(=O)N(C)CC(N)=O)CCC(=O)NCCCCC(=O)N2 [compound 47] ([Ava]CNT[Trp(7-Me)]K(Ac)CY(Me2NCH2CH2)[2Nal][αMeL]ENH[Sar]-NH2; disulfide 2-7; lactam N-11)	≥ 1000 µg/mL	≥ 950 µg/mL	540 µg/mL (≈ 284 µM)	110 µg/mL (≈ 57.9 µM)	2.9%	0.6%	0.9%	9.51	96%	87%	85%	82%
CC(=O)NCCCC[C@@H]1NC(=O)[C@H](Cc2c[nH]c3c(C)cccc23)NC(=O)[C@H]([C@@H](C)O)NC(=O)[C@H](CC(N)=O)NC(=O)[C@@H]2CSSC[C@H](NC1=O)C(=O)N[C@@H](Cc1ccc(OCCN(C)C)cc1)C(=O)N[C@@H](Cc1ccc3ccccc3c1)C(=O)NC(C)(C)C(=O)N[C@H](C(=O)N[C@@H](CC(N)=O)C(=O)N[C@@H](Cc1c[nH]cn1)C(=O)NCCC(N)=O)CCC(=O)NCCCCC(=O)N2 [compound 48] ([Ava]CNT[Trp(7-Me)]K(Ac)CY(Me2NCH2CH2)[2Nal][Aib]ENH[βAla]-NH2; disulfide 2-7; lactam N-11)	≥ 1060 µg/mL	≥ 1040 µg/mL	≥ 990 µg/mL	≥ 1040 µg/mL	12.5%	1.3%	2.8%	9.55	100%	80%	80%	76%
CC(=O)NCCCC[C@@H]1NC(=O)[C@H](Cc2c[nH]c3c(C)cccc23)NC(=O)[C@H]([C@@H](C)O)NC(=O)[C@H](CC(N)=O)NC(=O)[C@@H]2CSSC[C@H](NC1=O)C(=O)N[C@@H](Cc1ccc(OCCN(C)C)cc1)C(=O)N[C@@H](Cc1ccc3ccccc3c1)C(=O)NC1(CCOCC1)C(=O)N[C@H](C(=O)N[C@@H](CC(N)=O)C(=O)N[C@@H](Cc1c[nH]cn1)C(=O)NCCC(N)=O)CCC(=O)NCCCCC(=O)N2 [compound 49] ([Ava]CNT[Trp(7-Me)]K(Ac)CY(Me2NCH2CH2)[2Nal][Thp]ENH[βAla]-NH2; disulfide 2-7; lactam N-11)	≥ 1110 µg/mL	≥ 1090 µg/mL	≥ 1050 µg/mL	≥ 1040 µg/mL	11.6%	1.2%	1.4%	9.48	100%	85%	75%	74%
CC(=O)NCCCC[C@@H]1NC(=O)[C@H](Cc2c[nH]c3c(C)cccc23)NC(=O)[C@H]([C@@H](C)O)NC(=O)[C@H](CC(N)=O)NC(=O)[C@@H]2CSSC[C@H](NC1=O)C(=O)N[C@@H](Cc1ccc(OCCN(C)C)cc1)C(=O)N[C@@H](Cc1ccc3ccccc3c1)C(=O)N[C@@](C)(CC(C)C)C(=O)N[C@H](C(=O)N[C@@H](CC(N)=O)C(=O)N[C@@H](Cc1c[nH]cn1)C(=O)NCCC(N)=O)CCC(=O)NCCCCC(=O)N2 [compound 50] ([Ava]CNT[Trp(7-Me)]K(Ac)CY(Me2NCH2CH2)[2Nal][αMeL]ENH[βAla]-NH2; disulfide 2-7; lactam N-11)	≥ 1000 µg/mL	≥ 980 µg/mL	670 µg/mL (≈ 353 µM)	440 µg/mL (≈ 232 µM)	13.0%	0.7%	1.5%	9.54	99%	95%	85%	85%
